From patent US6706528B2, “Fluorescent magnesium indicators” (The United States of America as represented by the …, priority 2000, dated 2004)

What was measured:
[1] = UV absorption spectrum of the free indicator; type: physicochemical; settings: buffer pH 7.2
Protocol: The emission and excitation fluorescence spectra of the compounds of the present invention (e.g., (1a-3a), (9a), (11a-13a), (15a), and (18a-24a)) were recorded using a 0.5 to 1.0 μM solution of the chelator buffered at pH 7.2. The solutions also contained 120 mM KCl and 20 mM NaCl to mimic the ionic strength of the intracellular medium. These solutions were titrated with stock solutions of MgCl2 containing an equimolar concentration of the 4-oxo-4H-quinolizine carboxylic acids to cancel out dilution effects during the titration. After each titration step, the emission and excitation fluorescence spectra were recorded. The apparent dissociation constants of indicators for Mg^2+ were determined from the fluorescence spectra as originally described by Grynkiewicz et al. (Grynkiewicz et al., J. Biol. Chem. 260: 3440-3450 [1985]).
In the following experiments, tetrahydrofuran (THF) was dried and distilled over sodium/benzophenone (Nalbenzophenone) prior to use. Dimethylformamide (DMF) was dried over molecular sieves (4 Å). Ethyl acetate, hexane, diethyl ether and all commercially available chemicals were used as received. After extractive work-up, the combined organic phases were dried on magnesium sulfate. Water used in the spectrophotometric and fluorescence experiments was filtered through a hydro PICOPURE® 2 filter. Thin layer chromatography was carried out on Sigma-Aldrich TLC plates (silica gel on polyester). Chromatographic purifications were done by flash chromatography using Merck Silica Gel, grade 9385, 230-400 mesh, 60 Å. Melting points were measured on a Fisher-Johns melting point apparatus and are shown uncorrected herein. ^1H-NMR spectra and ^13C-NMR spectra were recorded on a Nicolet NT 360 MHz NMR Spectrometer and a Varian UNITY plus 400 MHz NMR Spectrometer. Chemical shifts are reported in parts per million (δ), using tetramethylsilane (TMS) as the internal standard. The signals are expressed as an s (singlet), d (doublet), t (triplet), q (quartet), m (multiplet), or br (broad). High cresolution mass spectra were obtained from the Washington University Resources for Biomedical and Bio-organic Mass Spectrometry on samples which were chromatographically pure. Compounds (9a) and (21a) were analyzed by FABMS using NBA Li matrix. UV absorption spectra were recorded with a Bechman DU 650 Spectrophotometer using Fisherbrand™ semimicro quartz cells (Fisher Scientific). Fluorescence measurements were recorded with an Aminco-Bowman® Series 2 Spectrometer using quartz fluorimeter cuvets from Sigma. pH measurements were done using a Mettler Toledo MP 255 pH meter.
The buffered solutions used in fluorescence/Mg^2+ titration experiments contained 120 mM KCl, 20 mM NaCl, and 15 mM TRIS buffer, and were brought to pH=7.2 with concentrated HCl. A stock solution of 2 mg of the indicator in 5 ml buffer was prepared. To record a UV spectrum, the stock solutions were diluted 40 times (25 μl in 975 μl). For the fluorescence titration experiments, 25 μl of the stock solution was diluted 100 times with 2475 μl buffer. Emission fluorescence and excitation fluorescence spectra were recorded using the appropriate excitation wavelength derived from the UV spectrum of the free indicator. To 2475 μl of a MgCl2 solution (100 mM, 250 mM or 500 mM (2a)), 25 μl of the stock solution of the indicator was added, to cancel out dilution during the titration. To the solution of the free indicator, increasing amounts of the MgCl2/indicator solution were added. After each titration step, fluorescence emission and fluorescence excitation spectra were recorded.

[2] = fluorescent response to increasing Ca2+ concentrations; type: binding; settings: for fluorescent response to increasing Ca^2+ concentrations: Ca^2+ up to 100 mM
[3] = fluorescence/pH titration to determine pKa; type: physicochemical; settings: 10 mM MOPS buffer, from pH 4.29, read-out: pKa of the carboxylate group on the ring system
Protocol: However, it is not intended that the present invention be so limited nor is it necessary to understand the mechanism in order to practice the present invention. Thus, the indicators are present in the deprotonated form and available for complexation at physiological pH.
To determine the pKa of 1-bromo-8-(1,2-dicarboxyethyl)-4-oxo-4H-quinolizine-3-carboxylic acid (21a), 250 μl of the stock solution of 1-bromo-8-(1,2-dicarboxyethyl)-4-oxo-4H-quinolizine-3-carboxylic acid was added to 25 ml of 10 mM MOPS, pH 4.29. The fluorescence emission spectrum was recorded. A 0.1 M NaOH solution containing an equal concentration of 1-bromo-8-(1,2-dicarboxyethyl)-4-oxo-4H-quinolizine-3-carboxylic acid (21a), was added dropwise. After each pH increase of 0.2, the emission spectrum was recorded. At pH 6.31, no change of the fluorescence emission was observed.

| Compound | A, absorption maximum of the free indicator [1] | melting point | also measured |
| --- | --- | --- | --- |
| 1-[N,N-di(carboxymethyl)]-4-oxo-4H-quinolizine-3-carboxylic acid [Compound 11a] | 410 nm |  |  |
| 8-[3-(N,N-di(carboxymethyl)phenoxy]-4-oxo-4H-quinolizine-3-carboxylic acid [Compound 18a] | 370 nm |  |  |
| O=C(O)c1ccc2ccccn2c1=O [Compound 1a, 4-oxo-4H-quinolizine-3-carboxylic acid] | 385 nm |  | effect of Ca^2+ on the fluorescence emission ([2]; Ca^2+ levels in the nanomolar to submicromolar range): do not affect the fluorescence emission |
| O=C(O)c1ccc2cc(Cl)ccn2c1=O [Compound 2a, 4-oxo-8-chloro-4H-quinolizine-3-carboxylic acid] | 391 nm | > 250 °C |  |
| O=C(O)c1ccc2ccc3ccccc3n2c1=O [Compound 3a, [6,7]benzo-4-oxo-4H-quinolizine-3-carboxylic acid] | 410 nm |  |  |
| O=C(O)c1cc(Br)c2ccccn2c1=O [Compound 9a, 1-bromo-4-oxo-4H-quinolizine-3-carboxylic acid] | 403 nm | > 250 °C | fluorescent response to increasing Ca^2+ concentrations [2]: no fluorescent response |
| O=C(O)C(=Cc1cc(C(=O)O)c(=O)n2ccccc12)C(=O)O [Compound 12a, 1-(2,2-dicarboxyvinyl)-4-oxo-4H-quinolizine-3-carboxylic acid] | 400 nm |  |  |
| O=C(O)c1cc(CC(C(=O)O)C(=O)O)c2ccccn2c1=O [Compound 13a, 1-(2,2-dicarboxyethyl)-4-oxo-4H-quinolizine-3-carboxylic acid] | 395 nm |  |  |
| Nc1ccn2c(=O)c(C(=O)O)ccc2c1 [Compound 15a, 8-amino-4-oxo-4H-quinolizine-3-carboxylic acid] | 385 nm |  |  |
| O=C(O)Cc1ccn2c(=O)c(C(=O)O)ccc2c1 [Compound 19a, 8-(carboxymethyl)-4-oxo-4H-quinolizine-3-carboxylic acid] | 380 nm |  |  |
| O=C(O)CC(C(=O)O)c1ccn2c(=O)c(C(=O)O)ccc2c1 (stereo not drawn) [Compound 20a, 8-(1,2-dicarboxyethyl)-4-oxo-4H-quinolizine-3-carboxylic acid] | 390 nm |  |  |
| O=C(O)CC(C(=O)O)c1ccn2c(=O)c(C(=O)O)cc(Br)c2c1 (stereo not drawn) [Compound 21a, 1-bromo-8-(1,2-dicarboxyethyl)-4-oxo-4H-quinolizine-3-carboxylic acid] | 407 nm | > 250 °C | fluorescent response to increasing Ca^2+ concentrations [2]: no fluorescent response; pKa [3]: 5.6 |
| COc1ccc(-c2ccn3c(=O)c(C(=O)O)ccc3c2)cc1 [Compound 22a, 8-(4-methoxyphenyl)-4-oxo-4H-quinolizine-3-carboxylic acid] | 406 nm | > 250 °C |  |
| O=C(O)c1ccc2cc(-c3cccc4ccccc34)ccn2c1=O [Compound 23a, 8-(naphth-1-yl)-4-oxo-4H-quinolizine-3-carboxylic acid] | 386 nm | 245 to 247 °C |  |
| O=C(O)c1ccc2cc(-c3cc4ccccc4o3)ccn2c1=O [Compound 24a, 8-benzo[b]furyl-4-oxo-4H-quinolizine-3-carboxylic acid] | 440 nm |  |  |
